Source: patent publication US11548893B2 (priority 2017, dated 2023)
pEC50: −log10 of the molar value. Like-named read-outs stand apart in the source and are kept apart here.

Tests used:
[1] = in vitro; conditions: African green monkey, Cytotox CC50
[2] = system: BDBV (mucin-deleted glycoprotein, VSV pseudotype); assay: microbe, parasite or virus in culture; format: cell-based, Bundibugyo ebolavirus; conditions: Vesicular stomatitis virus, Vero, 24 h, read-out: EC50 Pseudotype Assays BDBV
[3] = system: EBOV (mucin-deleted glycoprotein, VSV pseudotype); assay: microbe, parasite or virus in culture; format: cell-based, Zaire ebolavirus; conditions: read-out: EC50 Pseudotype Assays EBOV
[4] = microsomes, 1 h
[5] = system: SUDV (glycoprotein, VSV pseudotype); assay: microbe, parasite or virus in culture; format: cell-based, Sudan ebolavirus; conditions: Vesicular stomatitis virus, Vero, 24 h, read-out: EC50 Pseudotype Assays SUDV
[6] = microsomes, 1 h; remark: listed apart in the source
[7] = system: EBOV_FL: full-length Ebola Zaire GP (VSV pseudotype); assay: microbe, parasite or virus in culture; format: cell-based, Zaire ebolavirus; conditions: Zaire ebolavirus, Vero, 24 h, read-out: EC50 Pseudotype Assays EBOV_FL
[8] = microsomes, 1 h; remark: listed apart in the source
[9] = microsomes, 1 h; remark: listed apart in the source
[10] = system: MARV (full-length glycoprotein, VSV pseudotype); assay: microbe, parasite or virus in culture; format: cell-based, Marburg marburgvirus; conditions: Vesicular stomatitis virus, Vero, 24 h, read-out: EC50 Pseudotype Assays MARV
[11] = system: VSV (native full-length glycoprotein); assay: microbe, parasite or virus in culture; format: cell-based; conditions: Vesicular stomatitis virus, Vero, read-out: EC50 Pseudotype Assays VSV
[12] = system: Sudan Gulu; assay: organism not typed; conditions: HeLa, read-out: Sudan Gulu EC50
[13] = system: Ebola Zaire; assay: microbe, parasite or virus in culture; conditions: Zaire ebolavirus, read-out: Ebola Zaire EC50
[14] = system: Ebola Zaire
[15] = system: Sudan Gulu
[16] = system: Ebola Zaire; assay: microbe, parasite or virus in culture; conditions: Zaire ebolavirus, HeLa, read-out: Ebola Zaire EC50
[17] = in vitro; conditions: African green monkey
[18] = system: Ebola Zaire; assay: microbe, parasite or virus in culture; conditions: Zaire ebolavirus, read-out: Ebola Zaire EC90
[19] = system: EBOV (Mayinga); assay: microbe, parasite or virus in culture; format: cell-based, Ebola virus; conditions: for pEC50: Zaire ebolavirus, Vero
[20] = system: Ebola Zaire; remark: listed apart in the source

Compound	CC50 [1] [nM]	pEC50 [2]	pEC50 ([3]; Zaire ebolavirus, Vero, 24 h)	pEC50 [5]	pEC50 [7]	pEC50 [10]	other results
CC12CC3CC(C(=O)N4CCC5(CC4)CNC5)(C1)CC(c1ccccc1)(C3)C2 (racemic) [Example A48]	13700	7.46	7.85	7.46	6.85		Liver Microsome Stability % Remaining after 60 Minutes, Guinea Pig [4]: 87%; Liver Microsome Stability % Remaining after 60 Minutes, Human [6]: 46%; Liver Microsome Stability % Remaining after 60 Minutes, Mouse [8]: 76%; Liver Microsome Stability % Remaining after 60 Minutes, Monkey [9]: 22%
CCC12CC3CC(C(=O)N[C@@H]4CCNC[C@H]4F)(C1)CC(c1ccccc1)(C3)C2 (mixture of isomers) [Example A17]	6000	6.90		6.59	7.60	5.23	pEC50 [3]: 7.41
CCC12CC3CC(C(=O)N[C@H]4CCN[C@@H](C)C4)(C1)CC(c1ccccc1)(C3)C2 (mixture of isomers) [Example A21]	3900	6.68	7.66	6.38	7.70	5.16	
N[C@H]1CC[C@@H](NC(=O)C23CC4CC(CF)(C2)CC(c2ccccc2)(C4)C3)CC1 (mixture of isomers) [Example A28]	32300	6.22	7.21	5.81	6.85	< 5.00	
CCC12CC3CC(C(=O)N[C@H]4CCNC[C@@H]4F)(C1)CC(c1ccccc1)(C3)C2 (mixture of isomers) [Example A19]	7300	6.58	7.64	6.33	7.40	5.46	
C[C@H]1C[C@@H](NC(=O)C23CC4CC(C)(C2)CC(c2ccccc2)(C4)C3)CCN1 (mixture of isomers) [Example A4]	11700	6.70	7.66	6.14	7.60	5.15	pEC50 [11]: < 5.00
C[C@]12CC3CC(C(=O)N[C@H]4CN5CCC4CC5)(C1)C[C@@](c1ccccc1)(C3)C2 [Example B58]	8000	6.64	7.44	6.66		5.77	pEC50 [12]: 6.82; pEC50 [13]: 6.40; Ebola Zaire SI (CC50/EC90) [14]: 6.5; Sudan Gulu SI (CC50/EC50) [15]: 157; pEC50 [16]: 6.05; CC50 [17]: 25700 nM; EC90 [18]: 4400 nM; SI50 (CC50/EC50) [19]: 64; pEC50 [19]: 6.40
CCC12CC3CC(C(=O)NC4(C)CCNCC4)(C1)CC(c1ccccc1)(C3)C2 (racemic) [Example A26]	6700	6.48	6.89	6.22	6.70	5.59	
C[C@H]1C[C@@H](NC(=O)C23CC4C[C@](C)(C2)C[C@@](c2ccccc2)(C4)C3)CCN1 [Example C4]	14000	6.75	7.11	5.99	7.52	< 5.52	
CC12CC3CC(C(=O)N[C@@H]4CCNC[C@H]4F)(C1)CC(c1ccccc1)(C3)C2 (mixture of isomers) [Example A5]	11300	6.72	7.30	6.39	7.52	5.31	pEC50 [11]: < 5.00
C[C@]12CC3CC(C(=O)N[C@H]4CCNC[C@@H]4F)(C1)C[C@@](c1ccccc1)(C3)C2 [Example B6]	12200	6.71	7.44	6.49	7.70	< 5.52	
C[C@]12CC3CC(C(=O)N[C@H]4CC[C@H](CN)CC4)(C1)C[C@@](c1ccccc1)(C3)C2 [Example B3]	6110	6.94	8.05	6.64	8.00	5.44	pEC50 [12]: 6.92; pEC50 [13]: 6.37; Ebola Zaire SI (CC50/EC90) [14]: 23; Sudan Gulu SI (CC50/EC50) [15]: 119; pEC50 [16]: 6.24; EC90 [18]: 600 nM; Liver Microsome Stability % Remaining after 60 Minutes, Human [6]: 83%; Liver Microsome Stability % Remaining after 60 Minutes, Mouse [8]: 27%; Liver Microsome Stability % Remaining after 60 Minutes, Monkey [9]: 61%
CC12CC3CC(CN4CCC(N)CC4)(C1)CC(c1ccccc1)(C3)C2 (stereo not shown) [Example A69]	2200	6.79	6.49	6.54		6.02	pEC50 [12]: 7.15; Sudan Gulu SI (CC50/EC50) [15]: 58; pEC50 [16]: 6.36; Liver Microsome Stability % Remaining after 60 Minutes, Guinea Pig [4]: 65%; Liver Microsome Stability % Remaining after 60 Minutes, Human [6]: 98%; Liver Microsome Stability % Remaining after 60 Minutes, Mouse [8]: 100%; Liver Microsome Stability % Remaining after 60 Minutes, Monkey [9]: 68%; Ebola Zaire SI (CC50/EC50) [20]: 16
CC1(C)CN(C(=O)C23CC4C[C@@](C)(C2)C[C@](c2ccccc2)(C4)C3)CC[C@@H]1N [Example B13]	11300	7.15	7.85	7.40			Liver Microsome Stability % Remaining after 60 Minutes, Guinea Pig [4]: 50%; Liver Microsome Stability % Remaining after 60 Minutes, Human [6]: 85%; Liver Microsome Stability % Remaining after 60 Minutes, Mouse [8]: 51%; Liver Microsome Stability % Remaining after 60 Minutes, Monkey [9]: 32%
C[C@@]12CC3CC(C(=O)N[C@H]4CC[C@@H](N)CC4)(C1)C[C@](c1ccccc1)(C3)C2 [Example C2]	25500	6.60	6.87	6.12	6.68	5.06	CC50 [17]: 21400 nM; SI50 (CC50/EC50) [19]: 8; pEC50 [19]: 5.57
CC12CC3CC(C(=O)N[C@H]4CC[C@H](CN)CC4)(C1)CC(c1ccccc1)(C3)C2 (mixture of isomers) [Example A3]	8000	7.02	7.59	7.52	7.40	5.15	pEC50 [11]: < 5.00
CC12CC3CC(C(=O)N[C@H]4CN5CCC4CC5)(C1)CC(c1ccccc1)(C3)C2 (mixture of isomers) [Example A58]	7200	6.70	7.13	6.42	7.15	6.55	pEC50 [11]: < 5.00
CC12CC3CC(C(=O)NC4CCNCC4)(C1)CC(c1ccccc1)(C3)C2 (racemic) [Example A1]	16100	6.80	7.38	6.42	7.40	5.55	pEC50 [11]: < 5.00
CCC12CC3CC(C(=O)N[C@@H]4CCNC[C@H]4O)(C1)CC(c1ccccc1)(C3)C2 (mixture of isomers) [Example A25]	11800	6.70	7.39	6.10	7.22	5.07	
C[C@@]12CC3CC(C(=O)N[C@H]4CC[C@H](CN)CC4)(C1)C[C@](c1ccccc1)(C3)C2 [Example C3]	5200	6.72	7.14	6.07	7.52	5.50	
CCC12CC3CC(C(=O)N[C@H]4CC[C@H](CN)CC4)(C1)CC(c1ccccc1)(C3)C2 (mixture of isomers) [Example A22]	3700	6.73	7.72	6.38	8.00	5.55	
